These results are taken from patent publication US20120321685A1, “COMPOSITIONS CONTAINING OILS HAVING A SPECIFIC GRAVITY HIGHER THAN THE SPECIFIC GRAVITY OF WATER” (SOL-GEL TECHNOLOGIES LTD., priority 2001, published 2012).

Series [1] is described as follows: Solubility of BMDBM and other solid sunscreen actives in different solvents. The settings on record: in Dipropylene glycol Dibenzoate (Finetex Finsolv PG-22), 25° C. It counts as physicochemical. The protocol:
The solubility of commonly used sunscreen active ingredients was tested by heating a solution of below-mentioned solvents or their mixture to 50° C. under stirring. Access amount of the sunscreen active was added. After thorough mixing to dissolve the solid, the solution was allowed to cool to 25° C. over night in the water bath under constant oscillation and the access active precipitated. The solution was filtered using 0.2 μm PTFE filter, and the concentration of BMDBM was determined by HPLC equipped with UV diode array detector against standard solution of BMDBM. For the other sunscreen actives, the concentration of the active was determined spectroscopically against standard solution of the active. Table 1 lists the solubility values obtained for BMDBM and other sunscreen actives in different commercially available solvents.

For series [2] the following is noted: cited from earlier work.
A short description of series [3]: Solubility of benzoyl peroxide in Finsolve PG-22. It is filed as physicochemical. The procedure: The solubility of benzoyl peroxide in dipropylene glycol dibenzoate (Finsolv PG 22) was measured in a method similar to Example 1. Benzoyl peroxide concentration was determined by titration according to USP. The solubility of benzoyl peroxide in Finsolve PG-22 is 6 wt. %.

With `COc1ccc(C(=O)c2ccccc2)c(O)c1` [Benzophenone-3], the “Solubility, concentration” value in series [1] was determined as 26.6 wt %. For the compound `CCC(=O)OCc1ccccc1` [Benzyl propionate], the “Solvent specific gravity, acc. to D25/25” value in series [2] is on record as 1.028-1.032. Take `CC(COC(=O)c1ccccc1)OCC(C)OC(=O)c1ccccc1` (stereo not drawn) [Dermol DPG-2B, Dipropylene glycol Dibenzoate]: the “Solvent specific gravity, acc. to D25/25” value in series [2] is 1.117. As for `CCOC(=O)c1ccccc1` [Ethyl benzoate], in series [2], the “Solvent specific gravity, acc. to D25/25” value was 1.043-1.046. Turning to `CCOC(=O)c1ccccc1O` [Ethyl salicylate], in series [2], the “Solvent specific gravity, acc. to D25/25” value is reported as 1.126-1.130. `CC(COC(=O)c1ccccc1)OCC(C)OC(=O)c1ccccc1` (stereo not drawn) [Finsolv PG-22, Dipropylene glycol Dibenzoate]: the “Solvent specific gravity, acc. to D25/25” value in series [2] was 1.12. With `Cc1ccc(/C=C2/C(=O)C3(C)CCC2C3(C)C)cc1` (stereo not drawn) [Methyl benzyledene camphor], the “Solubility, concentration” value in series [1] is 30.16 wt %. As to `O=C(OOC(=O)c1ccccc1)c1ccccc1` [benzoyl peroxide], in series [3] (in dipropylene glycol dibenzoate), the “Solvent quality of dipropylene glycol dibenzoate for BPO” value was “good solvent”. In series [3] (in dipropylene glycol dibenzoate (Finsolv PG 22), method similar to Example 1, titration according to USP), the “Solubility of benzoyl peroxide in Finsolve PG-22” value turned out to be 6 wt. %.
